# Results as given in paper PMC4430595 (European Journal of Clinical Pharmacology, 2015).
# Several values for one entry are separate records, joined by “and”; a condition that tells them apart may be missing. Equal values may be shown once. Read-outs that look alike come from different tables or passages of the source.
# What was measured:
# [1] = Study B: plasma pharmacokinetics after single-dose i.v. telavancin 10 mg/kg in subjects with varying renal function; settings: for half-life / AUC(0-inf) / Cmax / clearance: both, human, in vivo, iv; for half-life / AUC(0-inf) / Cmax / clearance / increase in systemic exposure (AUC0–∞) compared with healthy subjects: 10 mg/kg; for AUC(0-inf): AUC0–∞; for Cmax: C max (maximum plasma concentration); for clearance: CL (clearance)
# Protocol: Plasma pharmacokinetic parameters were calculated as previously described.
# plasma proteins = assay: Plasma protein binding by equilibrium dialysis (study A pre-infusion plasma); format: in vitro ADME, human; settings: in vitro equilibrium dialysis; for Protein binding (%): pre-infusion plasma, telavancin 50 μg/ml spiked with 1 μg/ml [14C]telavancin, mean ± SD
# Protocol: The percent of protein binding was calculated as follows: %bound=donor−receptor÷donor×100%,and%unbound=receptor÷donor×100%, where donor = plasma side concentration and receptor = buffer side concentration.
# [2] = study A, ESRD
# Protocol: (§1) In subjects with end-stage renal disease (ESRD), haemodialysis was initiated 2–4 h after study drug administration (study A only). Haemodialysis sessions were 4 h in duration, and when possible, a similar type of dialyzer at a similar blood flow rate was used across haemodialysis subjects.
# For subjects with ESRD (study A), a sample from the inflow to the dialyzer on the arterial side was collected before dialysis and at 1, 2, 3 and 4 h after the start of dialysis; dialysate fluid samples (10 ml) were collected before and at 30-min intervals during dialysis. Plasma samples were also collected at 0, 60, 120, 180 and 240 min following the start of dialysis.
# (§2) The method was linear over the range 0.25–100 μg/ml and the lower limit of quantification (LLQ) was 0.25 μg/ml. Dialysate samples from study A were analysed at a separate central laboratory (Covance Laboratories, Madison, WI, USA) using a similar validated LC–MS method. […] Study samples outside the calibration range were diluted and re-assayed. Dilution QC samples were included in batches where samples were diluted prior to analysis.
# Dialyzers used included the PSN 210 and the 2K 2.5 Dialysate (both Gambro). The dialysate flow rate was 800 mL/min, and blood flow rates in patients ranged from 300 to 500 mL/min.
# [3] = not given; remark: listed apart in the source
# [4] = cited from earlier work
# clinical = settings: both, human, in vivo, iv, 7.5 mg/kg
# Text: (§3) Subjects included men and non-pregnant women and, in study A or B, respectively, were ≥18 years or 20–79 years of age with a body mass index of 18–36 or 18.5–34 kg/m^2. Subjects were either healthy or had mild, moderate or severe renal impairment.
# (§4) Subjects were assigned to the renal impairment strata based on assessment during pre-study screening. For study A, strata assignment was based on CLcr calculated using the Cockcroft-Gault (C–G) equation [12] […] For study B, assignment was based on the estimated glomerular filtration rate (eGFR) using the Modification of Diet in Renal Disease formula [13] […] Summary statistics for Study B were also prepared using the C–G equation [12] with and without normalization to body surface area. Creatinine assays were performed at each clinical site using UV absorbance assays at 512 nm to detect the yellow–red complex formed from the reaction of creatinine and picric acid under alkaline conditions.
# as §1
# (§5) Blood samples (5–6 ml) were collected in sodium heparin glass tubes and stored chilled until the plasma was harvested by centrifugation and stored at approximately –70 °C or below until transferred frozen to a central laboratory for analysis. For subjects with varying degrees of renal impairment, samples were collected in study A pre-infusion, at 1, 2, 4, 6, 8, 12, 24, 36 and 48 h after the start of infusion for all groups and also at 72 and 96 h post-infusion for subjects with severe renal impairment or ESRD. In study B, samples were collected pre-infusion and at 0.5, 1, 1.5, 2, 3, 4, 6, 8, 10, 12, 16, 24, 36, 48, 60, 72, 84 and 96 h post-dose.
# as §2
# (§6) The CL reported for ESRD is the CL for the subjects (i.e., includes residual clearance and any dialysis clearance).
# [5] = Study B: urinary excretion and renal clearance; settings: mean ± SD; for CLR (renal clearance): CLR = Ae ÷ AUC; for dose excreted: human, in vivo, iv, 10 mg/kg; for Ae0–∞ (amount excreted in the urine extrapolated to infinity): normalized to a telavancin dose of 10 mg/kg
# Protocol: Aliquots were collected and stored at −70 °C or lower.
# The inter- and intra-assay precision and accuracy of quality controls and standards during the validation was within 7.6 % in plasma and 10.2 % in urine.
# Plasma pharmacokinetic parameters were calculated as previously described [7]. The CL reported for ESRD is the CL for the subjects (i.e., includes residual clearance and any dialysis clearance).
# Dialyzers used included the PSN 210 and the 2K 2.5 Dialysate (both Gambro). The dialysate flow rate was 800 mL/min, and blood flow rates in patients ranged from 300 to 500 mL/min. […] In study B, the percentage of the dose excreted in urine was calculated as Ae0–t% = Ae0–t/dose × 100 % and Ae0–∞% = Ae0–∞/dose × 100 %.
# [6] = Study A: plasma pharmacokinetics after single-dose i.v. telavancin 7.5 mg/kg in subjects with varying renal function
# Text: as §3, §4, §1, §5, §2, §6
# [7] = human, in vivo
# Text: as §3, §4, §1, §5, §2, §6
# [8] = data on file, cited from earlier work
# [9] = study B, single 1-h i.v. infusion telavancin 10 mg/kg, plasma, mild RI (eGFR 60 to 89 mL/min/1.73 m^2), n = 13, mean ± SD
# [10] = study B, single 1-h i.v. infusion telavancin 10 mg/kg, plasma, normal renal function (eGFR ≥90 mL/min/1.73 m^2), n = 14, mean ± SD
# [11] = study B, single 1-h i.v. infusion telavancin 10 mg/kg, plasma, severe RI (eGFR 15 to 29 mL/min/1.73 m^2), n = 8, mean ± SD
# [12] = subjects with severe renal impairment or ESRD, stated for both studies
compound,measurement,setting,value
CCCCCCCCCCNCCN[C@@]1(C)C[C@H](O[C@H]2[C@H](Oc3c4cc5cc3Oc3ccc(cc3Cl)[C@@H](O)[C@@H](NC(=O)[C@@H](CC(C)C)NC)C(=O)N[C@@H](CC(N)=O)C(=O)N[C@H]5C(=O)N[C@H]3C(=O)N[C@H](C(=O)N[C@H](C(=O)O)c5cc(O)c(CNCP(=O)(O)O)c(O)c5-c5cc3ccc5O)[C@H](O)c3ccc(c(Cl)c3)O4)O[C@H](CO)[C@@H](O)[C@@H]2O)O[C@@H](C)[C@H]1O [telavancin],half-life,[1],6.5 h
same,AUC(0-inf),[1]; [9],606 µg·h/mL
same,AUC(0-inf),"[1]; study B, single 1-h i.v. infusion telavancin 10 mg/kg, plasma, moderate RI (eGFR 30 to 59 mL/min/1.73 m^2), n = 8, mean ± SD",936 µg·h/mL
same,AUC(0-inf),[1]; [10],539 µg·h/mL
same,AUC(0-inf),[1]; [11],1400 µg·h/mL
same,Cmax,"[1]; study B, single 1-h i.v. infusion telavancin 10 mg/kg, mild RI (eGFR 60 to 89 mL/min/1.73 m^2), n = 13, mean ± SD",74.2 µg/mL
same,Cmax,"[1]; study B, single 1-h i.v. infusion telavancin 10 mg/kg, normal renal function (eGFR ≥90 mL/min/1.73 m^2), n = 14, mean ± SD",76.7 µg/mL
same,Cmax,"[1]; study B, single 1-h i.v. infusion telavancin 10 mg/kg, severe RI (eGFR 15 to 29 mL/min/1.73 m^2), n = 8, mean ± SD",83.2 µg/mL
same,clearance,[1]; [9],0.253 mL/min/kg
same,clearance,[1]; [10],0.283 mL/min/kg
same,clearance,[1]; [11],0.108 mL/min/kg
same,half-life,"[1]; t ½ (terminal elimination half-life), study B, single 1-h i.v. infusion telavancin 10 mg/kg, plasma, mild RI (eGFR 60 to 89 mL/min/1.73 m^2), n = 13, mean ± SD",7.8 h
same,half-life,"[1]; t ½ (terminal elimination half-life), study B, single 1-h i.v. infusion telavancin 10 mg/kg, plasma, severe RI (eGFR 15 to 29 mL/min/1.73 m^2), n = 8, mean ± SD",11.8 h
same,increase in systemic exposure (AUC0–∞) compared with healthy subjects,"[1]; study B, mild renal impairment",12%
same,increase in systemic exposure (AUC0–∞) compared with healthy subjects,"[1]; study B, moderate renal impairment",74%
same,increase in systemic exposure (AUC0–∞) compared with healthy subjects,"[1]; study B, severe renal impairment",160%
same,C max (maximum plasma concentration),"[1]; study B, single 1-h i.v. infusion telavancin 10 mg/kg, moderate RI (eGFR 30 to 59 mL/min/1.73 m^2), n = 8, mean ± SD",78.0 ± 4.5 µg/mL
same,Protein binding (%),"plasma proteins; ESRD on dialysis, n = 6",87.6 ± 1.0/0%
same,Protein binding (%),"plasma proteins; mild RI (CLcr 51–80 mL/min), n = 6",87.5 ± 1.0%
same,Protein binding (%),"plasma proteins; moderate RI (CLcr 30–50 mL/min), n = 6",87.8 ± 1.1%
same,Protein binding (%),"plasma proteins; normal renal function (CLcr >80 mL/min), n = 6",86.5 ± 1.3%
same,Protein binding (%),"plasma proteins; severe RI (CLcr <30 mL/min), n = 4",86.7 ± 1.2%
same,average binding to plasma proteins,"plasma proteins; study A pre-dose plasma, all renal impairment groups",approximately 87%
same,dialysis clearance as share of clearance in normal subjects (total body CL),[2],approximately 25%
same,total administered dose removed by dialysis session,"[2]; 7.5 mg/kg, 4-h haemodialysis on the day of administration, dialysate flow 800 mL/min",approximately 6%
same,dialysis clearance,"[2]; CLHD = QD × (CTLV – DTLV) ÷ CTLV, dialysate flow 800 mL/min, estimated",4.5 mL/min
same,dialysis clearance,[2]; same value in ml/h,4.52 mL/min
same,subjects reporting treatment-emergent adverse events (TEAEs),"study A, ESRD, 2/6",33%
same,subjects reporting treatment-emergent adverse events (TEAEs),"study A, all subjects, 17/29",59%
same,subjects reporting treatment-emergent adverse events (TEAEs),"study A, mild renal impairment, 4/7",57%
same,subjects reporting treatment-emergent adverse events (TEAEs),"study A, moderate renal impairment, 3/6",50%
same,subjects reporting treatment-emergent adverse events (TEAEs),"study A, normal renal function, 5/6",83%
same,subjects reporting treatment-emergent adverse events (TEAEs),"study A, severe impairment, 3/4",75%
same,tolerability,"study A, single i.v. infusion 7.5 mg/kg, normal renal function and varying degrees of renal impairment",well tolerated
same,audiology assessments,"ten subjects with various degrees of renal impairment, study not given",no clinically significant abnormalities
same,serious adverse events,"[3]; stated after the study B findings, study not given",No serious adverse events were reported
same,subjects reporting treatment-emergent adverse events (TEAEs),"[3]; study B, all subjects, 7/43",16.3%
same,subjects reporting treatment-emergent adverse events (TEAEs),"[3]; study B, mild renal impairment, 1/13",7.7%
same,subjects reporting treatment-emergent adverse events (TEAEs),"[3]; study B, moderate renal impairment, 2/8",25%
same,subjects reporting treatment-emergent adverse events (TEAEs),"[3]; study B, normal renal function, 0/14",0%
same,subjects reporting treatment-emergent adverse events (TEAEs),"[3]; study B, severe impairment, 4/8",50%
same,tolerability,"[3]; study B, single i.v. infusion 10 mg/kg, normal renal function and varying degrees of renal impairment",well tolerated
same,subjects with ECG QT prolongation,"[3]; study B, three subjects of 43 (two severe, one moderate renal impairment), mild and transient",7.0%
same,subjects with increased blood lactate dehydrogenase,"[3]; study B, two subjects of 43, mild and transient",4.7%
same,excreted intact in urine,[4]; after a single i.v. administration of 10 mg/kg,82%
same,elimination half-life (t½),"[4]; healthy adult volunteers, 7.5–15 mg/kg/day i.v. infusion, averaging",~7 h
same,Cmax,clinical,70.6 ± 11.2 µg/mL
same,CLR (renal clearance),[5]; mild renal impairment,0.147 ± 0.055 mL/min/kg
same,CLR (renal clearance),[5]; moderate renal impairment,0.0783 ± 0.0267 mL/min/kg
same,CLR (renal clearance),[5]; normal renal function,0.17 ± 0.03 mL/min/kg and 0.175 ± 0.0317 mL/min/kg
same,CLR (renal clearance),[5]; severe renal impairment,0.03 ± 0.01 mL/min/kg and 0.0317 ± 0.012 mL/min/kg
same,dose excreted,"[5]; both, Ae0-t % (percentage of the dose excreted in urine), urine 0–96 h, mild renal impairment",58.2 ± 11.5%
same,dose excreted,"[5]; both, Ae0-t % (percentage of the dose excreted in urine), urine 0–96 h, moderate renal impairment",48.4 ± 8.7%
same,dose excreted,"[5]; both, Ae0-t % (percentage of the dose excreted in urine), urine 0–96 h, normal renal function",62.8 ± 9%
same,dose excreted,"[5]; both, Ae0–∞% (percentage of the dose excreted in urine, extrapolated to infinity), normal renal function",62.7 ± 9.1%
same,dose excreted,"[5]; Ae0–∞% (percentage of the dose excreted in urine, extrapolated to infinity), mild renal impairment",58.2 ± 11.6%
same,dose excreted,"[5]; Ae0–∞% (percentage of the dose excreted in urine, extrapolated to infinity), moderate renal impairment",48.4 ± 9.3%
same,dose excreted,"[5]; Ae0–∞% (percentage of the dose excreted in urine, extrapolated to infinity), severe renal impairment",28.2 ± 3.9%
same,Ae0–∞ (amount excreted in the urine extrapolated to infinity),[5]; mild renal impairment,396 ± 100 mg
same,Ae0–∞ (amount excreted in the urine extrapolated to infinity),[5]; moderate renal impairment,375 ± 96 mg
same,Ae0–∞ (amount excreted in the urine extrapolated to infinity),[5]; normal renal function,435 ± 91 mg
same,Ae0–∞ (amount excreted in the urine extrapolated to infinity),[5]; severe renal impairment,208 ± 60 mg
same,Ae0-t % (percentage of the dose excreted in urine),"[5]; urine 0–96 h, severe renal impairment",28.0 ± 4.3%
same,clearance,"[6]; both, human, in vivo, iv, 7.5 mg/kg, CL (clearance), study A, single 1-h i.v. infusion telavancin 7.5 mg/kg, plasma, ESRD, n = 6, includes residual clearance and any dialysis clearance, mean ± SD",0.136 mL/min/kg
same,increase in systemic exposure (AUC0–∞) compared with healthy subjects,"[6]; study A, 7.5 mg/kg, ESRD group",79%
same,increase in systemic exposure (AUC0–∞) compared with healthy subjects,"[6]; study A, 7.5 mg/kg, mild renal impairment",13%
same,increase in systemic exposure (AUC0–∞) compared with healthy subjects,"[6]; study A, 7.5 mg/kg, moderate renal impairment",29%
same,increase in systemic exposure (AUC0–∞) compared with healthy subjects,"[6]; study A, 7.5 mg/kg, severe renal impairment",118%
same,change of t1/2,[6]; [12],almost doubled
same,reduction of mean plasma CL,[6]; [12],more than 50%
hydroxypropylbetadex,CL (clearance),[7],9.8 ± 4.3/0 mL/h/kg
same,t½,[8]; previously studied patients with severe renal impairment,15.6 ± 6.0 h
same,t½,[8]; subjects with normal renal function,2.5 ± 0.84 h
